Assay in all cases: Kinase selectivity, DiscoverX scanMAX Kinase assay panel (% control)
Type in all cases: binding

Experiment [1] deals with T1, kinases of the scanMAX Kinase assay panel (Homo sapiens, UniProt P08581, M1250T).
T1 construct: purchased DiscoverX Co. (contract measurement) scanMAX Kinase assay panel
Conditions: MET(M1250T); 1 uM. A digest of the protocol: (§1)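 A 1 uM DMSO solution of compound was applied across the panel kinases, and results were expressed as % control relative to DMSO (100%) and a positive control (0%).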

For experiment [2], the target named is T2, kinases of the scanMAX Kinase assay panel (Homo sapiens, UniProt P17612).
T2 construct: purchased DiscoverX Co. (contract measurement) scanMAX Kinase assay panel
Conditions: PKAC-alpha; 1 uM. In a few lines: as §1

In experiment [3] the target is T3, kinases of the scanMAX Kinase assay panel (Homo sapiens, UniProt P22607).
T3 construct: purchased DiscoverX Co. (contract measurement) scanMAX Kinase assay panel
T3 sequence (P22607 23-806): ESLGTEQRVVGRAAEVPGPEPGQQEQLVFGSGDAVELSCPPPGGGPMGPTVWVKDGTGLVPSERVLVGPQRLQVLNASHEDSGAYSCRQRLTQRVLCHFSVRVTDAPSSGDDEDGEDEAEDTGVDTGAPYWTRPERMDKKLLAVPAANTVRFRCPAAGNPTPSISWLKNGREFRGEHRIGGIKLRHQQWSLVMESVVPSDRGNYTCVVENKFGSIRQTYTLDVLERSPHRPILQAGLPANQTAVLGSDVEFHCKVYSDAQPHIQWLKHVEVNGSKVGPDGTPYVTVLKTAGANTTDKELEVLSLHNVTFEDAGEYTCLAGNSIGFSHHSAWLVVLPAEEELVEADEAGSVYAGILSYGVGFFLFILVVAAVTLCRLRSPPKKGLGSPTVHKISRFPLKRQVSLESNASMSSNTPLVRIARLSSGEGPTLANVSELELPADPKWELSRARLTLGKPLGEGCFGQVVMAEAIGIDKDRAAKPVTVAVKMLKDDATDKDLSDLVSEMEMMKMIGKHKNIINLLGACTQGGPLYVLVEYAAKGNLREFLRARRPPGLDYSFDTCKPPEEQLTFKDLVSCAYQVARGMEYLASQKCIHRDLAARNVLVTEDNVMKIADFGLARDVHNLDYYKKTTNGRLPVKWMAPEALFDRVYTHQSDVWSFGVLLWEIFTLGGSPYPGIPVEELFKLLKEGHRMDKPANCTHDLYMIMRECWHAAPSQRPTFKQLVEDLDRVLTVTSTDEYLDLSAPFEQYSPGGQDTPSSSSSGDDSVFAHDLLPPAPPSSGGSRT
Conditions: FGFR3; 1 uM. In a few lines: as §1

For experiment [4], the target named is T4, kinases of the scanMAX Kinase assay panel (Homo sapiens, UniProt P29320).
T4 construct: purchased DiscoverX Co. (contract measurement) scanMAX Kinase assay panel
T4 sequence (P29320 21-983): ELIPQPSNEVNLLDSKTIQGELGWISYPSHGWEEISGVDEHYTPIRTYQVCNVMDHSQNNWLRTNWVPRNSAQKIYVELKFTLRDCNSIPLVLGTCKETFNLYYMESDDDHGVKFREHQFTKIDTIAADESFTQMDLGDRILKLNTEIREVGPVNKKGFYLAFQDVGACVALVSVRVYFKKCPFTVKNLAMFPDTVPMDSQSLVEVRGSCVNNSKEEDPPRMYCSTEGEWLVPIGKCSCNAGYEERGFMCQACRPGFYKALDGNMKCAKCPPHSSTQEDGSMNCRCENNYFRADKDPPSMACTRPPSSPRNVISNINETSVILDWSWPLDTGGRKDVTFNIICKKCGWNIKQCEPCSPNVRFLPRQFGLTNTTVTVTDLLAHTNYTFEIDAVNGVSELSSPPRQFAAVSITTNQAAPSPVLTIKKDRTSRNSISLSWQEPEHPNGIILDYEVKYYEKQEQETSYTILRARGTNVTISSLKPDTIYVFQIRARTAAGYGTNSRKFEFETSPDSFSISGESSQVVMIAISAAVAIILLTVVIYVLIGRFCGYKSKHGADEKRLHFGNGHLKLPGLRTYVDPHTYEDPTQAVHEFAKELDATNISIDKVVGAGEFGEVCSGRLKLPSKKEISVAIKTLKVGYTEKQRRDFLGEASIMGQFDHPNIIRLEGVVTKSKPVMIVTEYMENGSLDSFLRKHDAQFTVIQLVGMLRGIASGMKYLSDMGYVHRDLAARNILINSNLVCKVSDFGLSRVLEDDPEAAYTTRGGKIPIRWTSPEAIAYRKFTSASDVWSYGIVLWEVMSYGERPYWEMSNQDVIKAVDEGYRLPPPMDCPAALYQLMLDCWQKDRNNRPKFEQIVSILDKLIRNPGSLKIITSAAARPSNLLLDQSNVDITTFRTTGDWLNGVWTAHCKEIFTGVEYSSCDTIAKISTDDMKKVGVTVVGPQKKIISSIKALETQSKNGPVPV
The conditions noted are these: EPHA3; 1 uM. A digest of the protocol:
as §1

The target of experiment [5] is T5, kinases of the scanMAX Kinase assay panel (Homo sapiens, UniProt P54764).
T5 construct: purchased DiscoverX Co. (contract measurement) scanMAX Kinase assay panel
T5 sequence (P54764 20-986): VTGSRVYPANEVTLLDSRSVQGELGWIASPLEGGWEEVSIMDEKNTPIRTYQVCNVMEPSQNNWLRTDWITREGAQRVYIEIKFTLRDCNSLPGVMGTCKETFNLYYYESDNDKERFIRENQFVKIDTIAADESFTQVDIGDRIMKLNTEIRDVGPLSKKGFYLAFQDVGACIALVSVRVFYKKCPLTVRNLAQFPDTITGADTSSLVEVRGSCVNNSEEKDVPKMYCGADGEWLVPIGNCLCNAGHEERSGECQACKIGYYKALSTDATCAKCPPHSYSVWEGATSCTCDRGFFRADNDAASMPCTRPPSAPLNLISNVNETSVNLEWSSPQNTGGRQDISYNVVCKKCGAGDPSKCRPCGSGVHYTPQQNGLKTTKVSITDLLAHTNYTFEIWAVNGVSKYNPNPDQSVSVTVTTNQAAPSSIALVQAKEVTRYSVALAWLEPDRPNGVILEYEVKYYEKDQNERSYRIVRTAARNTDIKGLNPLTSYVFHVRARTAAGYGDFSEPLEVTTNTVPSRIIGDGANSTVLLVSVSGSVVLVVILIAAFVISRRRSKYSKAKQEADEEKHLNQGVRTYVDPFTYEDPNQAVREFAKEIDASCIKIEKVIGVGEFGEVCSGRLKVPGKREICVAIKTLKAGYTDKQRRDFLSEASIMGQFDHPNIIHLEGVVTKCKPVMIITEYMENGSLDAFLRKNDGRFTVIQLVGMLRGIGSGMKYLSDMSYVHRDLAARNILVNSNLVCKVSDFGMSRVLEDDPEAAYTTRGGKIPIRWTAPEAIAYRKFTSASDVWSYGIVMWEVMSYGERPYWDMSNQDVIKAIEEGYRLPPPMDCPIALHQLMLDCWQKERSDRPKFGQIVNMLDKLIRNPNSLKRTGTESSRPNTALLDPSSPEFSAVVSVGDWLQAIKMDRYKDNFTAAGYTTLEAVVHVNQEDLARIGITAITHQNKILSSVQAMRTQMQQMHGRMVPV
Conditions: EPHA4; 1 uM. In a few lines:
as §1

Experiment [6] has as its target T6, kinases of the scanMAX Kinase assay panel (Homo sapiens, UniProt Q13882).
T6 construct: purchased DiscoverX Co. (contract measurement) scanMAX Kinase assay panel
The conditions noted are these: BRK; 1 uM. In a few lines: as §1

In experiment [7] the target is T7, kinases of the scanMAX Kinase assay panel (Homo sapiens, UniProt Q8TDC3).
T7 construct: purchased DiscoverX Co. (contract measurement) scanMAX Kinase assay panel
T7 sequence (Q8TDC3 1-778): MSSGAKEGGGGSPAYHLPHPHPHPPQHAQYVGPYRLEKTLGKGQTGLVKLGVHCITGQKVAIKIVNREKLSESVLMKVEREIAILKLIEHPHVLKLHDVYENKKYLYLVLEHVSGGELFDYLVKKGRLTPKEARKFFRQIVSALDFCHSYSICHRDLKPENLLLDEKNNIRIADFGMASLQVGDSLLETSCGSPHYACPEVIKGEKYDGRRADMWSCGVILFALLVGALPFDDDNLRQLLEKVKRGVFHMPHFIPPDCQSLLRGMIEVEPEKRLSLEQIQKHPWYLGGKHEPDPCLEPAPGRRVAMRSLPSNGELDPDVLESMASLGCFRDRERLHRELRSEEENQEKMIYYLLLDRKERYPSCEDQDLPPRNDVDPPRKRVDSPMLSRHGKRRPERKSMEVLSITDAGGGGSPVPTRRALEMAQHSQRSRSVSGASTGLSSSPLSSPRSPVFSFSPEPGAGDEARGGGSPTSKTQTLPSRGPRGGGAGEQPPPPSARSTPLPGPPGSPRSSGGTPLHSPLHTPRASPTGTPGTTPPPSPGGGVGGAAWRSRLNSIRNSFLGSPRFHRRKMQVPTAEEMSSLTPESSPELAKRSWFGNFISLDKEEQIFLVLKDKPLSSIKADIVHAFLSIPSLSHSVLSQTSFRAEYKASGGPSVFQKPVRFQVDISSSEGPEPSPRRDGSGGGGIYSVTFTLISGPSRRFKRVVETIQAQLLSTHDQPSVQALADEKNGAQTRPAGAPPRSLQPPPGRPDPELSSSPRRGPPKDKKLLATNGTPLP
The conditions noted are these: BRSK1; 1 uM. In a few lines:
as §1

Experiment [8] concerns the target T8, kinases of the scanMAX Kinase assay panel (Homo sapiens, UniProt Q9P289).
T8 construct: purchased DiscoverX Co. (contract measurement) scanMAX Kinase assay panel
Conditions: MST4; 1 uM. In a few lines: as §1

T8 sequence (Q9P289 whole entry): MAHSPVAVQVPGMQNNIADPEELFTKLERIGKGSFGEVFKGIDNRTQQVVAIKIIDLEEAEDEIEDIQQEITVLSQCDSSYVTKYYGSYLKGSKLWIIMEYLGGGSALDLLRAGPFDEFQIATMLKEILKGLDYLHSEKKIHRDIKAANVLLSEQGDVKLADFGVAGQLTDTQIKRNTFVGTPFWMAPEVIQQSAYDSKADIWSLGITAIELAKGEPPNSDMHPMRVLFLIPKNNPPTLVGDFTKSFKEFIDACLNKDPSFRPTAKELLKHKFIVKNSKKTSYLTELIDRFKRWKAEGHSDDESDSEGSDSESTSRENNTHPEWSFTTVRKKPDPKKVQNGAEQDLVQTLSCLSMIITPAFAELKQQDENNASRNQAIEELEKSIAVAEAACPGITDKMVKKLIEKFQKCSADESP
T1 sequence (P08581 25-1390 M1250T): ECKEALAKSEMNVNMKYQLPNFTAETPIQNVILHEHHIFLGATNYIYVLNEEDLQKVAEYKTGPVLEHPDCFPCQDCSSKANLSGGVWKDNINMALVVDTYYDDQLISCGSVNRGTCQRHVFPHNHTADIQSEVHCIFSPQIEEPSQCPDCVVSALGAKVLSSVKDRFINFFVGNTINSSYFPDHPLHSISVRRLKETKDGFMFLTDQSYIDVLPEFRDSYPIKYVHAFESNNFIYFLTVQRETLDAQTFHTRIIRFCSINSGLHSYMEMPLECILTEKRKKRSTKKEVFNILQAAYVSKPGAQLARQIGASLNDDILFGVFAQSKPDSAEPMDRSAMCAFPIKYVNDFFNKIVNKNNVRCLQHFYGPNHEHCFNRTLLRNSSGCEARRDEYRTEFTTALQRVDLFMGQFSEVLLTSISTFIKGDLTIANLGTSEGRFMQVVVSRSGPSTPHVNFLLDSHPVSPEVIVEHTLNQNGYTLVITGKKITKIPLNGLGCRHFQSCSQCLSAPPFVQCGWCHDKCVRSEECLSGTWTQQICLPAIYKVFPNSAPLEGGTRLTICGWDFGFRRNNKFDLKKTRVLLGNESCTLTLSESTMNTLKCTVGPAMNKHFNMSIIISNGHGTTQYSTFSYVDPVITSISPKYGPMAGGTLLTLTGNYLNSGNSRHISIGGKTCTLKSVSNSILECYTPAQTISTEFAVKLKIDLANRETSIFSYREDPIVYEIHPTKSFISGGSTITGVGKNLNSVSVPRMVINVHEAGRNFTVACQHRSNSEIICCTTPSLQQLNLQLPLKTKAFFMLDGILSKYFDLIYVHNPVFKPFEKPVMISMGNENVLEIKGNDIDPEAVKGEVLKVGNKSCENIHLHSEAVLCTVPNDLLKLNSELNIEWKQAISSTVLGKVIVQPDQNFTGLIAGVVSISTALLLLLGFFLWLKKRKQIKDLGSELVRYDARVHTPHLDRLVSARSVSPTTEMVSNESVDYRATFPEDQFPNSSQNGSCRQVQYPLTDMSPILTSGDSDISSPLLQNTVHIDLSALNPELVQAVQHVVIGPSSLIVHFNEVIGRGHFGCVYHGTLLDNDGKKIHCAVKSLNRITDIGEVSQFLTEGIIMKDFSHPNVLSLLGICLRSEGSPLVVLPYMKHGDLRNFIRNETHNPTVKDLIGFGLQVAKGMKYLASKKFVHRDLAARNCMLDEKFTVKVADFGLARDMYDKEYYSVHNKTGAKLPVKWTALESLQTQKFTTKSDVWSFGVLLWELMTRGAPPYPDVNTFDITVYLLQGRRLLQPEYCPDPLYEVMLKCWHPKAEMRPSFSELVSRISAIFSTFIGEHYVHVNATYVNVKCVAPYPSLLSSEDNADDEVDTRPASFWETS
T6 sequence (Q13882 whole entry): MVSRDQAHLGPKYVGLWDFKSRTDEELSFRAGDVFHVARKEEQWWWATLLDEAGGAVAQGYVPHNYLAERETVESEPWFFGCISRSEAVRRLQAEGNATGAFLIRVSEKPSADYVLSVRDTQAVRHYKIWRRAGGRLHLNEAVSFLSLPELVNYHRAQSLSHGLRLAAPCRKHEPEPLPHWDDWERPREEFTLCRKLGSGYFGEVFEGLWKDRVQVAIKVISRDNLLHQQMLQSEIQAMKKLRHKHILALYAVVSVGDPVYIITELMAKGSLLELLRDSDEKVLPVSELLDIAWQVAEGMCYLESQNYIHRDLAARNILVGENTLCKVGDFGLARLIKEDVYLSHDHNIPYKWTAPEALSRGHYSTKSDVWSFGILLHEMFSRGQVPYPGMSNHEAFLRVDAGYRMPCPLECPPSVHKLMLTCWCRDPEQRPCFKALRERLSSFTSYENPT

`CC1(Nc2nc(Nc3cnn([C@H]4CCN(C5COC5)C[C@@H]4F)c3Cl)nc3[nH]cc(C#N)c23)CC1` [Example 52, 2-((5-chloro-1-((3S,4S)-3-fluoro-1-(oxetane-3-yl)piperidine-4-yl)-1H-pyrazole-4-yl)amino)((1-methylcyclopropyl)amino)-7H-pyrrolo[2,3-d]pyrimidine-5-carbonitrile]: the remaining binding at 1 µM was determined as 28% in experiment [1]; 100% in experiment [2]; 9.8% in experiment [3]; 18% in experiment [4]; 75% in experiment [5]; 24% in experiment [6]. The remaining binding at 1 µM in experiment [7] stood at 96%; in experiment [8], 28%.
On to `CCNc1nc(Nc2ccc(C(=O)N3CCC(N4CCOCC4)CC3)cc2OC)nc2[nH]cc(C(F)(F)F)c12` [Example 104, (4-((4-(ethylamino)-5-(trifluoromethyl)-7H-pyrrolo[2,3-d]pyrimidine-2-yl)amino)-3-methoxyphenyl)(4-morpholinopiperidine-1-yl)methanone], for which the remaining binding at 1 µM in experiment [1] is 100%; in experiment [2], 100%; in experiment [3] it was 100%; in experiment [4], 92%; in experiment [5], 100%; in experiment [6] it was 64%. The remaining binding at 1 µM in experiment [7] and in experiment [8] was 100% in each case.
On to `CNc1nc(Nc2ccc(C(=O)N3CCOCC3)cc2OC)nc2[nH]cc(C#N)c12` [Example 1, 2-((2-methoxy-4-(morpholine-4-carbonyl)phenyl)amino)-4-(methylamino)-7H-pyrrolo[2,3-d]pyrimidine-5-carbonitrile], for which the remaining binding at 1 µM in experiment [1] is 100%; in experiment [2], 100%; in experiment [3], 100%; in experiment [4] it was 92%; in experiment [5] it was 93%; in experiment [6], 93%. The remaining binding at 1 µM in experiment [7] came out at 97%; in experiment [8], 69%.
